Experimental data as given in article PMC11466185, “Mechanisms and efficacy of small molecule latency-promoting agents to inhibit HIV reactivation ex vivo” (JCI Insight, 2024).

Tested on: HIV transcripts (TAR, LLTR, Pol, PolyA, TatRev)
Test: Cell-associated HIV transcripts (RT-ddPCR) 6 days after anti-CD3/CD28 activation of PBMCs from ART-suppressed PWH
Assay type: cell-based
Details: DMSO+CD3/28 = 1, Fig 4B, C and D
Description: Next, we evaluated the ability of the candidate LPAs to sustain the inhibitory effects during a prolonged ex vivo culture. To this end, PBMCs were cultured in the presence of individual drugs in DMSO or in DMSO alone as control, activated (anti-CD3/CD28), and harvested after 6 days. […] However, we decided to test the drug on day 6 because extra cells were available from some study participants.
Each drug was tested in PBMCs from at least 6 ART-suppressed study participants (except for KRIBB11, n = 5). PBMCs were aliquoted into wells at 6 × 10^6 cells/well. After activation, the cells were cultured with antiretrovirals in the presence of individual drugs in DMSO or DMSO alone as control. All conditions were tested in the presence of CD3/28 T cell–activating beads, except for the unactivated DMSO condition. After 6 days, total cellular RNA was extracted, and the progression through different stages of HIV transcription was quantified by measuring the levels of initiated (TAR), 5′ elongated (LLTR), midtranscribed/unspliced (Pol), completed (PolyA), and multiply spliced (TatRev) HIV transcripts. (A) The levels of all HIV transcripts were normalized to 1 μg of total cellular RNA and expressed as a percentage of the activated DMSO control (% of activated DMSO). Medians are shown as well as the individual values per study participant in different colors. (B–D) The effect of each drug on HIV transcriptional progression after activation was analyzed by the ratio of one HIV transcript to another. Ratios are independent of HIV infection frequency or normalization to cell numbers. Shown are the proportion of (B) all HIV transcripts that are elongated (LLTR/TAR), (C) elongated HIV transcripts that are completed (PolyA/LLTR), and (D) completed transcripts that are multiply spliced (TatRev/PolyA). Medians and IQR are presented, along with the individual values per study participant in different colors. P values were calculated using Wilcoxon’s signed-rank test: *P < 0.05.
PBMCs were isolated from fresh venous blood from 16 ART-suppressed HIV-infected study participants using Ficoll density gradient centrifugation. The cells were seeded at 6 × 10^6 cells/well and cultured with antiretrovirals (nevirapine and indinavir) to prevent new infection. On the next day, PBMCs were activated with anti-CD3/CD28–coated beads (Invitrogen) in the presence of 20 U/mL IL-2 and individual drugs in DMSO or DMSO alone as a control. Since we were limited in the PBMC yield per study participant, different study participants were used for different experiments (such as the initial screen, dose response, different time points, and studies in activated vs. unstimulated cells). In addition, the yields of PBMCs were sometimes insufficient to test all drugs for a given question or experiment.
For quantification of cell-associated HIV transcripts, PBMCs were harvested either after 24 hours or after 6 days. The cell viabilities were measured by trypan blue staining; then the cells were pelleted by centrifuging at 300g for 6 minutes and stored at –80°C. For quantification of virion-associated HIV RNA, cell culture supernatant was collected from 6 × 10^6 PBMCs that were treated and activated for 6 days as described above. Residual cells and cellular debris were subsequently removed from the supernatant by differential centrifugation (300g for 6 minutes, then 20,000g for 10 minutes), and the supernatant was stored at –80°C.
Total cellular DNA and RNA were extracted in parallel using Trireagent (Molecular Research Center) according to the manufacturer’s instructions, except for study participants 2147 and 2461 (Figure 4), for whom DNA and RNA were extracted using the QIAGEN AllPrep DNA/RNA/miRNA Universal Kit with on-column DNase I treatment of the RNA and the manufacturer’s modification to enhance recovery of short transcripts.

Row | Compound | LLTR/TAR (participant 150b) | PolyA/LLTR (participant 150b) | TatRev/PolyA (participant 150b) | LLTR/TAR (participant 2027) | PolyA/LLTR (participant 2027) | TatRev/PolyA (participant 2027) | LLTR/TAR (participant 2147a) | PolyA/LLTR (participant 2147a) | TatRev/PolyA (participant 2147a) | LLTR/TAR (participant 2161) | PolyA/LLTR (participant 2161) | LLTR/TAR (participant 2461) | PolyA/LLTR (participant 2461) | TatRev/PolyA (participant 2161) | LLTR/TAR (participant 2750) | PolyA/LLTR (participant 2750) | TatRev/PolyA (participant 2750) | also measured
1 | CN1CC[C@H](c2c(O)cc(O)c3c(=O)cc(-c4ccccc4Cl)oc23)[C@H](O)C1 [alvocidib] | 0.5959 | 1.023 | 0.12 | 0.4309 | 0.9713 | 0.1413 | 0.3521 | 0.4486 | 0.2041 | 1.064 | 0.55 | 1.513 | 1.443 | – | – | – | – | LLTR/TAR (participant 1379): 0.8323; PolyA/LLTR (participant 1379): 0.9327; LLTR/TAR (participant 2256): 0.6179; PolyA/LLTR (participant 2256): 0.6868; TatRev/PolyA (participant 2256): 0.617; LLTR/TAR (participant 2747): 0; LLTR/TAR (participant 5557): 0.4901; PolyA/LLTR (participant 5557): 0.9442
2 | CC(=O)N[C@@H]1CCC[C@H](C(=O)Nc2cc(-c3cnn4c3CC(C)(C)C4)c(Cl)cn2)C1 [AZD4573] | – | – | – | 0.3501 | 0.2124 | 0 | 0.6972 | 0.4073 | 0.2876 | 0.7137 | 1.39 | 1.973 | 0.4151 | 0 | 0.6631 | 1.188 | 0.2617 | PolyA/LLTR (participant 2747): 0.4425
3 | CCc1cnn2c(NCc3ccc[n+]([O-])c3)cc(N3CCCC[C@H]3CCO)nc12 [dinaciclib] | 0.1874 | 1.735 | 1.49 | 0.2578 | 0.8564 | 0.1946 | 2.005 | 0.4014 | 0.7191 | 1.155 | 1.48 | 2.038 | 3.944 | 1.061 | 1.778 | 2.886 | 0.2646 | –
